Holding throughout (assay type): physicochemical
The nature of data set [1]: Viscosity of 70:30 heavy oil to water mixture, Brookfield rheometer (Example 16). The procedure:
The mixture was gently stirred until it was observed it achieved a single liquid phase. Previously, the viscosity of the neat heavy oil sample was measured at 3431 cP using a Brookfield DVIII+ Rheometer. […] Next, 1 mL of 10 M HCl was added and the mixture was stirred gently, while observing phase separation of the oil and water.

Data set [2] is described as follows: Interfacial tension, Du Nouys ring tensiometer (Example 14), interface with light crude oil. As to conditions: 1% by weight solution, neutral pH (5 M NaOH); light crude oil API=37.4°. The procedure:
(§1) Surfactant molecules were tested for their ability to decrease the surface tension across the aqueous-organic interface.

Data set [3] can be described thus: Interfacial tension, Du Nouys ring tensiometer (Example 14), interface with ISOPAR M. The settings on record: 1% by weight solution, neutral pH (5 M NaOH). Here is the method:
as §1

Data set [4] can be described thus: Interfacial tension, Du Nouys ring tensiometer (Example 14), interface with air. As to conditions: 1% by weight solution, neutral pH (5 M NaOH). Here is the method: as §1
Data set [5] is described as follows: Solubility in water at 25° C.

Take “2-(nonen-1-yl)succinic acid mono (2-cyclohexylethyl) ester [Example 3]”: the “viscosity of the 70:30 oil to water mixture” value in data set [1] (105 mL heavy oil + 45 mL 1% surfactant solution, neat heavy oil 3431 cP) came out at 100.2 cP. The “viscosity of oil decanted after phase separation with HCl” value in data set [1] (after addition of 1 mL of 10 M HCl to the 70:30 mixture) is reported as “same viscosity measurement as the untreated heavy oil sample”. Besides, in data set [2], the “IFT w/Crude Oil” value is <0.01 mN/m. The “IFT w/ISOPAR” value in data set [3] is recorded as 0.09 mN/m. Further, the IFT w/air in data set [4] is 28.68 mN/m.
For the compound `CCCCCC/C=C/CC(CC(=O)OCC(C)(C)COC(=O)CC(C/C=C/CCCCCC)C(=O)O)C(=O)O` (stereo not drawn) [Example 2], the “solubility in water (in words)” value in data set [5] is reported as “very limited solubility in water”.

The record behind these values is patent publication US8969612B2, “Low interfacial tension surfactants for petroleum applications” (Soane Energy, LLC, priority 2009, dated 2015).
